Test results from US11369605B2, “Optically active azabicyclo ring derivative” (priority 2018, dated 2022).
pIC50: −log10 of the molar value. Entries after “also recorded” stand apart in the source; their conditions may differ.

How the values were obtained:
[1] = biological target: hERG (human Ether-a-go-go Related Gene) (Homo sapiens (Human), UniProt Q12809); assay: Test 4: hERG inhibition (QPatch HT); settings: for gap between RS4; 11 proliferation IC50 and hERG current IC50: summary of Test 4 table; for pIC50: read-out: hERG inhibition IC50, CHO cell strain stably expressing hERG; for hERG/RS4; 11: hERG IC50 divided by RS4, 11 proliferation IC50
hERG (human Ether-a-go-go Related Gene), sequence (Q12809 whole entry): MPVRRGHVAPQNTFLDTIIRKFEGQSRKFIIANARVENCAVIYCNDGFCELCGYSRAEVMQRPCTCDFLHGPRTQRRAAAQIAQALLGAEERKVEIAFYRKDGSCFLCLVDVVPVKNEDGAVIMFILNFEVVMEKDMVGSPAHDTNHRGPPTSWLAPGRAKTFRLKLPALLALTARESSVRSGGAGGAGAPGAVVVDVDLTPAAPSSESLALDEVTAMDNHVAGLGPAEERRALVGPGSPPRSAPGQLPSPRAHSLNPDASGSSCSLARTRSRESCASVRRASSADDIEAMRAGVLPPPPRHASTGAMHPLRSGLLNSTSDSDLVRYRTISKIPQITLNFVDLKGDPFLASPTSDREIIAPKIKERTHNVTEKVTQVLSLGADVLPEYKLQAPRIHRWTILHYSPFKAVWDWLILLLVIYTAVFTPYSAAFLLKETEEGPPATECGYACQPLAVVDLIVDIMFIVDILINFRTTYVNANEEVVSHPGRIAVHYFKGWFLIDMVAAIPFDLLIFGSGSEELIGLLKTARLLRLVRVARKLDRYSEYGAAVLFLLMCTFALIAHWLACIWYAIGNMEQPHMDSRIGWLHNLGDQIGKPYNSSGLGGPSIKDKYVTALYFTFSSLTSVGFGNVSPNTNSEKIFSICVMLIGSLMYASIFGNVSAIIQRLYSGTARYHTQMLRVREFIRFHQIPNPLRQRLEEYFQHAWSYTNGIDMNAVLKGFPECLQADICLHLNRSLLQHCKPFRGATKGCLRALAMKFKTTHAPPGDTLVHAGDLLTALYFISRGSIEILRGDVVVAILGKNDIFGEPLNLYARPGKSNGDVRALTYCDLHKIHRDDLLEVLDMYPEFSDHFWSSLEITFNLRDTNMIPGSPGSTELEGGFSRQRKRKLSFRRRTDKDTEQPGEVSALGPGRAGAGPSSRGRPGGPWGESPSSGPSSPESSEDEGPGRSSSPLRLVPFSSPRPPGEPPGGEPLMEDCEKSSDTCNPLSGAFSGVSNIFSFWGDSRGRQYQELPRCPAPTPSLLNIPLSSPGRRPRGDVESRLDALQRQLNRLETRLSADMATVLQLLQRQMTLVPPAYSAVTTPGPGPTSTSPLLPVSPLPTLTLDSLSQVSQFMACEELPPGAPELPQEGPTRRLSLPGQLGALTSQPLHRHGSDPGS

RS4; 11 cells = assay: Test 2: inhibition of cell proliferation, RS4; 11; type: cell-based; settings: for cell proliferation inhibition activity (in words): summary of Test 2 (RS4; 11 and MOLM-13)
Experimental: (§1) Test for Evaluating the Inhibition of Cell Proliferation RS4; 11 cells were obtained from American Type Culture Collection (ATCC). […] MOLM-13 cells were separately obtained from DSMZ (Deutsche Sammlung von Mikroorganismen und Zeilkulturen GmbH). […] The cells were plated to a 96-well plate in 2000 cells/well, each test compound was added thereto to adjust the final concentration of DMSO to 0.1% of DMSO, and the cells were cultured for 7 days. After the cultivation, the cell viability was calculated with PrestoBlue™ Cell Viability Reagent (Invitrogen, A13261).

[2] = biological target: Menin-MLL binding (His-Menin1-615, MLL1-172-FLAG) (Homo sapiens (Human), UniProt O00255); assay: Test 1: inhibition of the Menin-MLL binding (HTRF); settings: summary of Test 1 table
Menin-MLL binding (His-Menin1-615, MLL1-172-FLAG), sequence (O00255 other isoform, or with tags, fused parts or gaps): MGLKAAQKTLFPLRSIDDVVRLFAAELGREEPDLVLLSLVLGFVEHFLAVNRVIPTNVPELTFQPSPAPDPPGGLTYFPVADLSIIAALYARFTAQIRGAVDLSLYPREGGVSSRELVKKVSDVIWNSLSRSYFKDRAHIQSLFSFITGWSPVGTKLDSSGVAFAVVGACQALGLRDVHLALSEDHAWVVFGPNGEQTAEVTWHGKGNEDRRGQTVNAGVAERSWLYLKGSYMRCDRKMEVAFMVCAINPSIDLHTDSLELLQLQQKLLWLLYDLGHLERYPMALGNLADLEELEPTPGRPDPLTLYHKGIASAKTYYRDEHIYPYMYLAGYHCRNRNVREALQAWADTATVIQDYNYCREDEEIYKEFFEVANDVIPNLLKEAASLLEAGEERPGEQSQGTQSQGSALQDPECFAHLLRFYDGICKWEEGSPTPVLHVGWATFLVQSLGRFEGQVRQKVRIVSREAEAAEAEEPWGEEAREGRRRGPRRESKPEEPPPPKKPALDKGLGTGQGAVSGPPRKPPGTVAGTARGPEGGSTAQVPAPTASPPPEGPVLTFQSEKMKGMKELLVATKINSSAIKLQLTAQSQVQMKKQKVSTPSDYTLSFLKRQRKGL
Experimental: Test 1: Test for Evaluating the Inbinition of the Menin-MLL Binding
After the incubation, the signal was detected with RUBYstar (BMG LABTECH).

[3] = system: MEIS1 mRNA in MV4; 11 cells; assay: Test 3: inhibition of mRNA transcription, MEIS1; type: cell-based; settings: for mRNA transcription inhibition activity (in words): MEIS1 and HOXA9, MV4, summary of Test 3
Experimental: (§2) Test 3: Test for the Inhibition of mRNA Transcription with Test Compounds
(§3) MV4; 11 cells were obtained from American Type Culture Collection (ATCC). […] After the incubation, the total RNA was extracted from the cells with RNeasy™ Mini Kit (QIAGEN, 74106), and cDNA was synthesized with Superscript™ VILO™ cDNA Synthesis Kit (Invitrogen, #11754250). By using TaqMan™ Gene Expression Master Mix (Applied Biosystems, 4369016) and TaqMan™ probe (Applied Biosystems), the expression level of mRNA was quantified from the obtained cDNA with 7900HT (Applied Biosystems). The expression level of each obtained gene (MEIS1 and HOXA9) was fitted with the expression level of mRNA of GAPDH.

MOLM-13 cells = assay: Test 2: inhibition of cell proliferation, MOLM-13; type: cell-based; settings: cultured 7 days, PrestoBlue
Experimental: as §1

[4] = system: HOXA9 mRNA in MV4; 11 cells; assay: Test 3: inhibition of mRNA transcription, HOXA9; type: cell-based; settings: 20 to 24 hours, fitted with GAPDH
Experimental: as §2, §3

Compound | gap between RS4; 11 proliferation IC50 and hERG current IC50 [1] | cell proliferation inhibition activity (in words) (RS4; 11 cells) | Menin-MLL binding inhibition activity (in words) [2] | mRNA transcription inhibition activity (in words) [3] | also measured
C=C1C[C@H]2CC[C@@H]1N[C@@H]2C(=O)N1CC2(C1)CN(c1ncncc1Oc1ccc(F)cc1C(=O)N(C(C)C)C(C)C)C2 [Example 9, 5-fluoro-2-[(4-{6-[(1S,3S,4R)-6-methylidene-2-azabicyclo[2.2.2]octane-3-carbonyl]-2,6-diazaspiro[3.3]heptan-2-yl}pyrimidin-5-yl)oxy]-N,N-di(propan-2-yl)benzamide] | more than 100 fold | – | – | – | –
2-[(4-{6-[(1R,3S,4S)-2-azabicyclo[2.2.1]heptane-3-carbonyl]-2,6-diazaspiro[3.3]heptan-2-yl}pyrimidin-5-yl)oxy]-5-fluoro-N,N-di(propan-2-yl)benzamide [Example 15] | – | potent | – | – | pIC50 [1]: < 4.00
CC(C)N(C(=O)c1cc(F)ccc1Oc1cncnc1N1CC2(CCN(C(=O)[C@H]3N[C@H]4CC[C@@H]3C[C@H]4CC3CC3)CC2)C1)C(C)C [Example 4, 2-[(4-{7-[(1S,3S,4R,6R)-6-(cyclopropylmethyl)-2-azabicyclo[2.2.2]octane-3-carbonyl]-2,7-diazaspiro[3.5]nonan-2-yl}pyrimidin-5-yl)oxy]-5-fluoro-N,N-di(propan-2-yl)benzamide] | more than 100 fold | potent | potent | showed the mRNA transcription inhibition activity | –
C=C1C[C@H]2CC[C@@H]1N[C@@H]2C(=O)N1CCC2(CC1)CN(c1ncncc1Oc1ccc(F)cc1C(=O)N(C(C)C)C(C)C)C2 [Example 8, 5-fluoro-2-[(4-{7-[(1S,3S,4R)-6-methylidene-2-azabicyclo[2.2.2]octane-3-carbonyl]-2,7-diazaspiro[3.5]nonan-2-yl}pyrimidin-5-yl)oxy]-N,N-di(propan-2-yl)benzamide] | more than 100 fold | – | – | – | –
5-fluoro-2-[(4-{7-[(1S,3S,4R)-5-methylidene-2-azabicyclo[2.2.1]heptane-3-carbonyl]-2,7-diazaspiro[3.5]nonan-2-yl}pyrimidin-5-yl)oxy]-N,N-di(propan-2-yl)benzamide [Example 18] | – | potent | – | – | pIC50 (MOLM-13 cells): 7.40; pIC50 [1]: 4.34
CC(C)N(C(=O)c1cc(F)ccc1Oc1cncnc1N1CC2(CN(C(=O)[C@H]3N[C@H]4CC[C@@H]3C[C@H]4CC3CC3)C2)C1)C(C)C [Example 5, 2-[(4-{6-[(1S,3S,4R,6R)-6-(cyclopropylmethyl)-2-azabicyclo[2.2.2]octane-3-carbonyl]-2,6-diazaspiro[3.3]heptan-2-yl}pyrimidin-5-yl)oxy]-5-fluoro-N,N-di(propan-2-yl)benzamide] | more than 100 fold | potent; also recorded: excellent | potent | showed the mRNA transcription inhibition activity | –
CC(C)N(C(=O)c1cc(F)ccc1Oc1cncnc1N1CC2(CN(C(=O)[C@H]3N[C@H]4CC[C@@H]3C[C@@H]4CC3CC3)C2)C1)C(C)C [Example 3, 2-[(4-{6-[(1S,3S,4R,6S)-6-(cyclopropylmethyl)-2-azabicyclo[2.2.2]octane-3-carbonyl]-2,6-diazaspiro[3.3]heptan-2-yl}pyrimidin-5-yl)oxy]-5-fluoro-N,N-di(propan-2-yl)benzamide] | more than 100 fold | potent | particularly potent | showed the mRNA transcription inhibition activity | –
CC(C)N(C(=O)c1cc(F)ccc1Oc1cncnc1N1CC2(CN(C(=O)[C@H]3N[C@H]4CC[C@@H]3[C@@H](F)C4)C2)C1)C(C)C [Example 10, 5-fluoro-2-[(4-{6-[(1S,3S,4S,5S)-5-fluoro-2-azabicyclo[2.2.2]octane-3-carbonyl]-2,6-diazaspiro[3.3]heptan-2-yl}pyrimidin-5-yl)oxy]-N,N-di(propan-2-yl)benzamide] | more than 100 fold | potent | particularly potent | showed the mRNA transcription inhibition activity | –
C=C1C[C@@H]2CC[C@H]1[C@@H](C(=O)N1CCC3(CC1)CN(c1ncncc1Oc1ccc(F)cc1C(=O)N(C(C)C)C(C)C)C3)N2 [Example 6, 5-Fluoro-2-[(4-{7-[(1S,3S,4R)-5-methylidene-2-azabicyclo[2.2.2]octane-3-carbonyl]-2,7-diazaspiro[3.5]nonan-2-yl}pyrimidin-5-yl)oxy]-N,N-di(propan-2-yl)benzamide] | – | – | – | showed the mRNA transcription inhibition activity | –
2-[(4-{7-[(1R,3S,4S)-2-azabicyclo[2.2.1]heptane-3-carbonyl]-2,7-diazaspiro[3.5]nonan-2-yl}pyrimidin-5-yl)oxy]-5-fluoro-N,N-di(propan-2-yl)benzamide [Example 16] | – | potent | – | – | pIC50 (MOLM-13 cells): 7.40; pIC50 [1]: < 4.00
CC(C)N(C(=O)c1cc(F)ccc1Oc1cncnc1N1CC2(CCN(C(=O)[C@H]3N[C@H]4CC[C@@H]3C[C@@H]4CC3CC3)CC2)C1)C(C)C [Example 1, 2-[(4-{7-[(1S,3S,4R,6S)-6-(Cyclopropylmethyl)-2-azabicyclo[2.2.2]octane-3-carbonyl]-2,7-diazaspiro[3.5]nonan-2-yl}pyrimidin-5-yl)oxy]-5-fluoro-N,N-di(propan-2-yl)benzamide] | more than 100 fold | potent | potent | showed the mRNA transcription inhibition activity | –
CC(C)N(C(=O)c1cc(F)ccc1Oc1cncnc1N1CC2(CCN(C(=O)[C@H]3N[C@H]4CC[C@@H]3[C@@H](F)[C@H]4CC3CC3)CC2)C1)C(C)C [Example 14, 2-[(4-{7-[(1S,3S,4S,5S,6S)-6-(cyclopropylmethyl)-5-fluoro-2-azabicyclo[2.2.2]octane-3-carbonyl]-2,7-diazaspiro[3.5]nonan-2-yl}pyrimidin-5-yl)oxy]-5-fluoro-N,N-di(propan-2-yl)benzamide] | more than 100 fold | potent | – | – | pIC50 (MOLM-13 cells; Homo sapiens): 7.40; pIC50 (RS4; 11 cells; Homo sapiens, RS4, 11 cells, cultured 7 days, PrestoBlue): 7.70; hERG/RS4; 11 [1]: 557
CC(C)N(C(=O)c1cc(F)ccc1Oc1cncnc1N1CC2(CCN(C(=O)[C@H]3N[C@H]4CC[C@@H]3[C@H](F)[C@@H]4CC3CC3)CC2)C1)C(C)C [Example 19, 2-[(4-{7-[(1S,3S,4S,5R,6R)-6-(cyclopropylmethyl)-5-fluoro-2-azabicyclo[2.2.2]octane-3-carbonyl]-2,7-diazaspiro[3.5]nonan-2-yl}pyrimidin-5-yl)oxy]-5-fluoro-N,N-di(propan-2-yl)benzamide] | more than 100 fold | potent | – | – | hERG/RS4; 11 [1]: >690
CC(C)N(C(=O)c1cc(F)ccc1Oc1cncnc1N1CC2(CCN(C(=O)[C@H]3N[C@H]4CC[C@@H]3C(=O)C4)CC2)C1)C(C)C [Example 12, 5-fluoro-2-[(4-{7-[(1S,3S,4S)-5-oxo-2-azabicyclo[2.2.2]octane-3-carbonyl]-2,7-diazaspiro[3.5]nonan-2-yl}pyrimidin-5-yl)oxy]-N,N-di(propan-2-yl)benzamide] | more than 100 fold | – | – | – | –
2-[(4-{6-[(1R,3S,4R)-2-azabicyclo[2.2.2]octane-3-carbonyl]-2,6-diazaspiro[3.3]heptan-2-yl}pyrimidin-5-yl)oxy]-5-fluoro-N,N-di(propan-2-yl)benzamide [Example 11] | more than 100 fold | potent | potent | showed the mRNA transcription inhibition activity | mRNA at 1 μM (% control) HOXA9 [4]: 36.5 % control; pIC50 [1]: < 5.00; mRNA at 1 μM (% control) MEIS1 ([3]; MV4, 1 μM, 20 to 24 hours, fitted with GAPDH): 13.1 % control
